Source: the NIST ThermoML archive (doi:10.1016/j.jct.2019.105878)

Experiment: osmotic coefficient (dimensionless); mn = molality of the nth substance listed, in mol/kg
Conditions: 298.15 K, 97.5 kPa, Liquid, vapour pressure osmometry

O=Cc1ccc(CO)o1 [5-(hydroxymethyl)furan-2-carbaldehyde] + O
Conditions | osmotic coefficient
m1 = 0.496 | 0.85
m1 = 0.991 | 0.73
m1 = 1.483 | 0.635
m1 = 1.98 | 0.572
m1 = 2.473 | 0.521
m1 = 2.967 | 0.462
m1 = 3.459 | 0.442
m1 = 3.95 | 0.396
m1 = 4.444 | 0.378
m1 = 4.935 | 0.37
